ChEMBL document CHEMBL1909046, “DrugMatrix in vitro pharmacology data”

Columns and labels:
[1] = DRUGMATRIX: Calcium Channel Type L, Phenylalkylamine radioligand binding (ligand: [3H] (-)-Desmethoxyverapamil (D-888)); assay type: cell membranes, Rattus norvegicus, Wistar, Brain, Membrane; settings: Not Active = under 50% inhibition at 10 µM
[2] = biological target: 5-hydroxytryptamine receptor 1B (Rattus norvegicus, UniProt P28564); assay type: cell membranes, Wistar, Cerebral cortex, Membrane; note: in other assays of this panel Not Active means under 50% inhibition at 10 µM
[3] = biological target: T1, B2 bradykinin receptor (Homo sapiens, UniProt P30411); assay type: cell membranes, Membrane; settings: chem-1; note: in other assays of this panel Not Active means under 50% inhibition at 10 µM
T1 sequence (P30411 whole entry): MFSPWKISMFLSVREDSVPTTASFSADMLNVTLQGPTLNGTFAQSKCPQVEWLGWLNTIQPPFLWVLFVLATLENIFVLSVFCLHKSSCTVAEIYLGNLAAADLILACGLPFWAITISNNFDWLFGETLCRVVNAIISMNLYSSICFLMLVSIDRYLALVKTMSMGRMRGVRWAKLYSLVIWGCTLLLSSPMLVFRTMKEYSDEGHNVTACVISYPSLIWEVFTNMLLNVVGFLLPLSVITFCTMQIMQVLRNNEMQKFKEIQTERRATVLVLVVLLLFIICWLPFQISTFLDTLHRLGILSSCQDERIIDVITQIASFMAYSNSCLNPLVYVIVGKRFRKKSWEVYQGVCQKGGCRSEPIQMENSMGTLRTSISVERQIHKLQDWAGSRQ

[4] = biological target: C-C chemokine receptor type 2 (Homo sapiens, UniProt P41597); assay type: cell membranes, CHO-K1, Membrane; settings: cho-k1; note: in other assays of this panel Not Active means under 50% inhibition at 10 µM
[5] = biological target: T2, Cytochrome P450 2A6 (Homo sapiens, UniProt P11509); settings: bti-tn-5b1-4; note: in other assays of this panel Not Active means under 50% inhibition at 10 µM
T2 sequence (P11509 whole entry): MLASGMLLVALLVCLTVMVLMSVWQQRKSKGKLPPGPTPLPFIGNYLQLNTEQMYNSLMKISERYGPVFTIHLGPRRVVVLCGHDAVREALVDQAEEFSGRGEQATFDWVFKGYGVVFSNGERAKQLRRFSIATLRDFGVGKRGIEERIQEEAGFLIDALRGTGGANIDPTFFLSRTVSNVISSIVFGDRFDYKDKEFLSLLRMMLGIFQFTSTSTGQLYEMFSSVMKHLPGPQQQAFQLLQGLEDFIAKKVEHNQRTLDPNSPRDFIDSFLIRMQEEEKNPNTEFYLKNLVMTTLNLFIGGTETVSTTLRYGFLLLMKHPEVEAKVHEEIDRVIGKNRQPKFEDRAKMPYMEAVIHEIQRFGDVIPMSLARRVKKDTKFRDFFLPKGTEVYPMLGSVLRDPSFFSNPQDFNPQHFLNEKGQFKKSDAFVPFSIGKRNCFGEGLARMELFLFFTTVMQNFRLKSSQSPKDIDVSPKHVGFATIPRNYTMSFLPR

[6] = biological target: C-C chemokine receptor type 5 (Homo sapiens, UniProt P51681); assay type: cell membranes, HEK293, Membrane; settings: hek293; note: in other assays of this panel Not Active means under 50% inhibition at 10 µM
[7] = biological target: T3, Estrogen receptor (Homo sapiens, UniProt P03372); settings: sf9; note: in other assays of this panel Not Active means under 50% inhibition at 10 µM
T3 sequence (P03372 whole entry): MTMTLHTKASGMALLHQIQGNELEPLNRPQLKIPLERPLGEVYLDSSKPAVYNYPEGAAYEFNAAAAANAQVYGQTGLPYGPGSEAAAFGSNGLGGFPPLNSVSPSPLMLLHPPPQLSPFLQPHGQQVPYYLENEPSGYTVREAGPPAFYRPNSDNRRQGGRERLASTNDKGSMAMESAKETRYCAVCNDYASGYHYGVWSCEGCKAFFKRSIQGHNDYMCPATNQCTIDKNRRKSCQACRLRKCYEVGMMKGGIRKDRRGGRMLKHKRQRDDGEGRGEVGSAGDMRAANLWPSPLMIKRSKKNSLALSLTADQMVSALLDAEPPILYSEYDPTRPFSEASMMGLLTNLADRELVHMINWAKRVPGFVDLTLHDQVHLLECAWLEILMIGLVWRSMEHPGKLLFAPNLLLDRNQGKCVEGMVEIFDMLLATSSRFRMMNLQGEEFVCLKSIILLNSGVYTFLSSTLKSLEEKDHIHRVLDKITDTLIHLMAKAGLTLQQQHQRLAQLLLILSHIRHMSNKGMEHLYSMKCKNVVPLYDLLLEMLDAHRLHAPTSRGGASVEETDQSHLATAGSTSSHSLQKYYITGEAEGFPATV

Sequence of C-C chemokine receptor type 2 (P41597 whole entry): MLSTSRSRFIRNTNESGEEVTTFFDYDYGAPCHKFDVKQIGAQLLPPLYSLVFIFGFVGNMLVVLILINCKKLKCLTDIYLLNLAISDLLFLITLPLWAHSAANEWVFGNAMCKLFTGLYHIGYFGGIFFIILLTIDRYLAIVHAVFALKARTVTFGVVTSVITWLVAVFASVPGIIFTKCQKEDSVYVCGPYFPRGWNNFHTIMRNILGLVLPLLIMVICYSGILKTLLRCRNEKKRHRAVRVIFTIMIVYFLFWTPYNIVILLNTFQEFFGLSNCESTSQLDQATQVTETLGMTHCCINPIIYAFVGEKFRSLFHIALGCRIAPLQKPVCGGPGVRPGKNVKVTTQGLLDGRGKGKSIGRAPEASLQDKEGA
Sequence of 5-hydroxytryptamine receptor 1B (P28564 whole entry): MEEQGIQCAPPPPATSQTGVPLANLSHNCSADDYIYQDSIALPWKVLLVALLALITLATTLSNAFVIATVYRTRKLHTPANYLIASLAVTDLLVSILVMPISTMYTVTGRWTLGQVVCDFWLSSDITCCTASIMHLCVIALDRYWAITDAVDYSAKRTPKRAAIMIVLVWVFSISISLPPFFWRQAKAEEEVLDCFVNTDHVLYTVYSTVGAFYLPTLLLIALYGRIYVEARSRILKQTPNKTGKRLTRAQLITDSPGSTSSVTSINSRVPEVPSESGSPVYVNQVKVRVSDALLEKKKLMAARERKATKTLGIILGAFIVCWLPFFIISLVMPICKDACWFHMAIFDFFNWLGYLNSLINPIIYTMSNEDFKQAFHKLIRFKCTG
Sequence of C-C chemokine receptor type 5 (P51681 whole entry): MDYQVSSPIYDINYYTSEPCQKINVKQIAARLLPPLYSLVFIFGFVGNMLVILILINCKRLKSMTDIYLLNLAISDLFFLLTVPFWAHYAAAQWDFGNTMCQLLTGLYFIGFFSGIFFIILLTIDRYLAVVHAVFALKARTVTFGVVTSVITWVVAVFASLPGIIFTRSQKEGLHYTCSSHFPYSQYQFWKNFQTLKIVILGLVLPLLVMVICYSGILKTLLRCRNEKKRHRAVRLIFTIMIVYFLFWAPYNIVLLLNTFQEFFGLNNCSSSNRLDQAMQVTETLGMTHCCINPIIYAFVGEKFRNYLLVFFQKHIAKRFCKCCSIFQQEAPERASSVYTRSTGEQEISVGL

NCC(CC(=O)O)c1ccc(Cl)cc1 (stereo not given) [BACLOFEN]
Not Active: IC50 [1] | Ki [1] | IC50 [2] | IC50 [3] | IC50 [4] | IC50 [5] | Ki [5] | IC50 [6]

Cc1ccnc2c1NC(=O)c1cccnc1N2C1CC1 [NEVIRAPINE]
Not Active: IC50 [1] | Ki [1] | IC50 [2] | IC50 [3] | IC50 [4] | IC50 [5] | Ki [5] | IC50 [6]

CC[C@H]1OC(=O)[C@H](C)[C@@H](O[C@H]2C[C@@](C)(OC)[C@@H](O)[C@H](C)O2)[C@H](C)[C@@H](O[C@@H]2O[C@H](C)C[C@H](N(C)C)[C@H]2O)[C@](C)(O)C[C@@H](C)C(=O)[C@H](C)[C@@H](O)[C@]1(C)O [ERYTHROMYCIN]
Not Active: IC50 [1] | Ki [1] | IC50 [2] | IC50 [3] | IC50 [4] | IC50 [5] | Ki [5] | IC50 [6]

O=C(O)CNCP(=O)(O)O [GLYPHOSATE]
Not Active: IC50 [1] | Ki [1] | IC50 [2] | IC50 [3] | IC50 [4] | IC50 [7] | IC50 [6]

C[N+](C)(C)CCOC(N)=O.[Cl-] [CARBACHOL]
Not Active: IC50 [1] | Ki [1] | IC50 [2] | IC50 [3] | IC50 [4] | IC50 [5] | Ki [5] | IC50 [6]

Nc1ccc(Cc2ccc(N)cc2)cc1
Not Active: IC50 [1] | Ki [1] | IC50 [2] | IC50 [3] | IC50 [4] | IC50 [5] | Ki [5] | IC50 [6]

CCN(CCO)CCCC(C)Nc1ccnc2cc(Cl)ccc12 (stereo not given) [HYDROXYCHLOROQUINE]
Not Active: IC50 [1] | Ki [1] | IC50 [2] | IC50 [3] | IC50 [4] | IC50 [5] | Ki [5] | IC50 [6]

COc1cc([C@@H]2c3cc4c(cc3[C@H](O)[C@H]3COC(=O)[C@H]23)OCO4)cc(OC)c1OC [PODOFILOX]
Not Active: IC50 [1] | Ki [1] | IC50 [2] | IC50 [3] | IC50 [4] | IC50 [5] | Ki [5] | IC50 [6]

CCN1CCN(c2cc3c(cc2F)c(=O)c(C(=O)O)cn3C2CC2)CC1 [ENROFLOXACIN]
Not Active: IC50 [1] | Ki [1] | IC50 [2] | IC50 [3] | IC50 [4] | IC50 [5] | Ki [5] | IC50 [6]

C[C@H]1C[C@H]2[C@@H]3CCC4=CC(=O)C=C[C@]4(C)[C@@]3(F)[C@@H](O)C[C@]2(C)[C@@]1(O)C(=O)CO [BETAMETHASONE]
Not Active: IC50 [1] | Ki [1] | IC50 [2] | IC50 [3] | IC50 [4] | IC50 [5] | Ki [5] | IC50 [6]

OC[C@H]1O[C@@H]2O[C@H]3[C@H](O)[C@@H](O)[C@@H](O[C@H]4[C@H](O)[C@@H](O)[C@@H](O[C@H]5[C@H](O)[C@@H](O)[C@@H](O[C@H]6[C@H](O)[C@@H](O)[C@@H](O[C@H]7[C@H](O)[C@@H](O)[C@@H](O[C@H]8[C@H](O)[C@@H](O)[C@@H](O[C@H]1[C@H](O)[C@H]2O)O[C@@H]8CO)O[C@@H]7CO)O[C@@H]6CO)O[C@@H]5CO)O[C@@H]4CO)O[C@@H]3CO [BETADEX]
Not Active: IC50 [1] | Ki [1] | IC50 [2] | IC50 [3] | IC50 [4] | IC50 [5] | Ki [5] | IC50 [6]

CCCCCCNC(=O)n1cc(F)c(=O)[nH]c1=O [CARMOFUR]
Not Active: IC50 [1] | Ki [1] | IC50 [2] | IC50 [3] | IC50 [4] | IC50 [5] | Ki [5] | IC50 [6]
